Laboratory results as given in PubChem BioAssay AID1259407 (Chemical Carcinogenesis Research Information System (CCRIS), 2018).
Activity calls are given as the source filed them. How the calls were made is not given here.

Test system: CCRIS mutagenicity, Ames/micronucleus/aberration tests
Assay: CCRIS mutagenicity studies
Settings: Method: PREINCUBATION

For `CCCCCCCCCCCCCC(=O)O`, the mutagenic call (Test System: AMES SALMONELLA TYPHIMURIUM, Strain/Indicator: TA97, Metabolic Activation: HAMSTER, LIVER, S-9, AROCLOR 1254 (10 OR 30%)) was “inactive; negative”, the mutagenic call (Test System: AMES SALMONELLA TYPHIMURIUM, Strain/Indicator: TA97, Metabolic Activation: NONE) was “inactive; negative” and the mutagenic call (Test System: AMES SALMONELLA TYPHIMURIUM, Strain/Indicator: TA97, Metabolic Activation: RAT, LIVER, S-9, AROCLOR 1254 (10%)) was “inactive; negative”. The mutagenic call (Test System: AMES SALMONELLA TYPHIMURIUM, Strain/Indicator: TA97, Metabolic Activation: RAT, LIVER, S-9, AROCLOR 1254 (30%)) was “inactive; negative”, the mutagenic call (Test System: AMES SALMONELLA TYPHIMURIUM, Strain/Indicator: TA98, Metabolic Activation: HAMSTER, LIVER, S-9, AROCLOR 1254 (10 OR 30%)) was “inactive; negative” and the mutagenic call (Test System: AMES SALMONELLA TYPHIMURIUM, Strain/Indicator: TA98, Metabolic Activation: NONE) was “inactive; negative”. The mutagenic call (Test System: AMES SALMONELLA TYPHIMURIUM, Strain/Indicator: TA98, Metabolic Activation: RAT LIVER S-9, PHENOBARBITAL AND BETA-NAPHTHOFLAVONE) was “inactive; negative”, the mutagenic call (Test System: AMES SALMONELLA TYPHIMURIUM, Strain/Indicator: TA98, Metabolic Activation: RAT, LIVER, S-9, AROCLOR 1254 (10 OR 30%)) was “inactive; negative” and the mutagenic call (Test System: AMES SALMONELLA TYPHIMURIUM, Strain/Indicator: TA100, Metabolic Activation: HAMSTER, LIVER, S-9, AROCLOR 1254 (10%)) was “inactive; negative”. For the same compound, the mutagenic call (Test System: AMES SALMONELLA TYPHIMURIUM, Strain/Indicator: TA100, Metabolic Activation: HAMSTER, LIVER, S-9, AROCLOR 1254 (30%)) was “inactive; negative”, the mutagenic call (Test System: AMES SALMONELLA TYPHIMURIUM, Strain/Indicator: TA100, Metabolic Activation: NONE) was “inactive; negative” and the mutagenic call (Test System: AMES SALMONELLA TYPHIMURIUM, Strain/Indicator: TA100, Metabolic Activation: RAT LIVER S-9, PHENOBARBITAL AND BETA-NAPHTHOFLAVONE) was “inactive; negative”. For the same compound, the mutagenic call (Test System: AMES SALMONELLA TYPHIMURIUM, Strain/Indicator: TA100, Metabolic Activation: RAT, LIVER, S-9, AROCLOR 1254 (10%)) was “inactive; negative”, the mutagenic call (Test System: AMES SALMONELLA TYPHIMURIUM, Strain/Indicator: TA100, Metabolic Activation: RAT, LIVER, S-9, AROCLOR 1254 (30%)) was “inactive; negative” and the mutagenic call (Test System: AMES SALMONELLA TYPHIMURIUM, Strain/Indicator: TA1535, Metabolic Activation: HAMSTER, LIVER, S-9, AROCLOR 1254 (10 OR 30%)) was “inactive; negative”. For the same compound, the mutagenic call (Test System: AMES SALMONELLA TYPHIMURIUM, Strain/Indicator: TA1535, Metabolic Activation: NONE) was “inactive; negative”, the mutagenic call (Test System: AMES SALMONELLA TYPHIMURIUM, Strain/Indicator: TA1535, Metabolic Activation: RAT, LIVER, S-9, AROCLOR 1254 (10 OR 30%)) was “inactive; negative” and the mutagenic call (Test System: AMES SALMONELLA TYPHIMURIUM, Strain/Indicator: TA1537, Metabolic Activation: HAMSTER, LIVER, S-9, AROCLOR 1254 (10 OR 30%)) was “inactive; negative”. The mutagenic call (Test System: AMES SALMONELLA TYPHIMURIUM, Strain/Indicator: TA1537, Metabolic Activation: NONE) was “inactive; negative”, the mutagenic call (Test System: AMES SALMONELLA TYPHIMURIUM, Strain/Indicator: TA1537, Metabolic Activation: RAT LIVER S-9, PHENOBARBITAL AND BETA-NAPHTHOFLAVONE) was “inactive; negative” and the mutagenic call (Test System: AMES SALMONELLA TYPHIMURIUM, Strain/Indicator: TA1537, Metabolic Activation: RAT, LIVER, S-9, AROCLOR 1254 (10 OR 30%)) was “inactive; negative”. For the same compound, the mutagenic call (Test System: E.COLI, Strain/Indicator: WP2UVRA/PKM101, Metabolic Activation: NONE) was “inactive; negative” and the mutagenic call (Test System: E.COLI, Strain/Indicator: WP2UVRA/PKM101, Metabolic Activation: RAT LIVER S-9, PHENOBARBITAL AND BETA-NAPHTHOFLAVONE) was “inactive; negative”.

With `c1cnc2c(c1)ccc1ncccc12` the mutagenic call (Test System: AMES SALMONELLA TYPHIMURIUM, Strain/Indicator: TA100, Metabolic Activation: RAT, LIVER, S-9, PHENOBARBITAL AND 5,6-BENZOFLAVONE) was “active; positive”.
